Earlier results, collected in US8618345B2 (priority 2006, dated 2013).

Columns and labels:
[1] = in vivo
[2] = ratio to inorganic arsenic (arsenic trioxide)

Compound | demethylation if accumulated in the body [1] | half life of a substance in the body (BHT) [1] [h] | toxicity compared with that of inorganic arsenic (arsenic trioxide) [2]
C[As+](C)(C)CC(=O)[O-] [arsenobetaine] | no demethylation | 3.5 | approximately 1/300
arsenic trioxide [inorganic arsenic, reference compound] | – | 28 | –
